From patent US20110308790A1, “IN SITU METHANOGENESIS MODELING AND RISK ANALYSIS” (CONOCOPHILLIPS COMPANY, priority 2010, published 2011)

Tested on: microbes in production water
Assay: biomass control with NaOCl solution (viable count CFU/mL)
Format: cell-based
Conditions: 0.03-0.6% NaOCl, 23 hours, presence or absence of oxygen
Protocol: The procedures to test the effectiveness, and the minimum dose, of NaOCl that is required to eliminate biomass in the injection line and injection well-bore during the field biogasification process are the following. The initial population of microbes in production water, placed in tubes that were to be incubated under defined oxygen saturation conditions was determined either by direct counting of cells using a Petroff Hausser bacterial counting chamber, or by counting the colony forming units (CFU/mL) of microorganisms that developed on specialized media after incubation for specific period. The population of microbes that were present in the incubated tubes (also with added carbon source-coal and nutrient additions) was determined over time after methane was detected in the headspace of the tubes. Thereafter, the same tubes were amended with different concentrations (0.6%, 0.3%, 0.15%, 0.1%, 0.075%, 0.06%, 0.03% and 0%) of NaOCl solution followed by incubation of the tubes for 23 hours to allow the biomolecule-oxidizing action of the solution to come to appreciable completion. Immediately after this, the population of viable microbes (i.e. CFU/mL) in the NaOCl-amended tubes was determined by plating a specific volume of the culture on defined solid medium.

OCl [NaOCl, sodium hypochlorite]
inactivation of microorganisms (viable CFU/mL): effective in inactiving microorganisms
